Assay: Plasma concentrations after oral administration in laboratory rats
Assay type: in vivo, rat

Q: With `O=C(Nc1cccnn1)N1CC(Oc2ccc(-c3ccccc3F)cn2)C1` [Example 18, 3-[5-(2-Fluoro-phenyl)-pyridin-2-yloxy]-azetidine-1-carboxylic acid pyridazin-3-ylamide] as the compound, how does the “plasma concentrations after oral administration” value (shortened to “plasma concentrations”) read?
A: high and prolonged plasma concentrations

Q: With `COCCOc1cccc(-c2ccc(OC3CN(C(=O)Nc4cccnn4)C3)nc2)c1` [Example 7, 3-{5-[3-(2-Methoxy-ethoxy)-phenyl]-pyridin-2-yloxy}-azetidine-1-carboxylic acid pyridazin-3-ylamide] as the compound, how does the “plasma concentrations” value read?
A: high and prolonged plasma concentrations

Q: Which “plasma concentrations” value does the source give for `O=C(Nc1cccnc1)N1CC(Oc2ccc(-c3ccccc3)cc2)C1` [Example 4, 3-(Biphenyl-4-yloxy)-azetidine-1-carboxylic acid pyridin-3-ylamide] here?
A: high and prolonged plasma concentrations

Q: Which “plasma concentrations” value does the source give for `COc1ccccc1-c1ccc(OC2CN(C(=O)Nc3cccnn3)C2)nc1` [Example 17, 3-[5-(2-Methoxy-phenyl)-pyridin-2-yloxy]-azetidine-1-carboxylic acid pyridazin-3-ylamine] here?
A: high and prolonged plasma concentrations

Q: Which “plasma concentrations” value does the source give for `O=C(Nc1cccnn1)N1CC(Oc2ccc(-c3ccccc3)cn2)C1` [Example 13, 3-(5-Phenyl-pyridin-2-yloxy)-azetidine-1-carboxylic acid pyridazin-3-ylamide] here?
A: high and prolonged plasma concentrations
